The target of the first test is T1, Neuropeptide Y receptor type 1 (Homo sapiens, UniProt P25929).
T1 sequence (P25929 whole entry): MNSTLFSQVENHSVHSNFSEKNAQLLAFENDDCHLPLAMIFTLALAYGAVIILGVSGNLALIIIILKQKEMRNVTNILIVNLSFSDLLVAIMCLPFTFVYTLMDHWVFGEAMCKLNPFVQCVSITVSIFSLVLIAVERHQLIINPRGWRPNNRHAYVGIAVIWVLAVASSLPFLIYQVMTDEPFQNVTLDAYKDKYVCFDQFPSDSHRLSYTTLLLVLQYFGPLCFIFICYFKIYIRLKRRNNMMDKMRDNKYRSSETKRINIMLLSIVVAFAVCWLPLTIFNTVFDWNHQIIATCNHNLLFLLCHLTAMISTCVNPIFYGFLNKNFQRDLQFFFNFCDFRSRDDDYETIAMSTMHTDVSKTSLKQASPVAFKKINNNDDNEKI
Description: Inhibition of binding of [125I]PYY to membranes of SK-N-MC cells expressing the human Y1 receptors. Format: cell membranes.
In the case of `COC(=O)C1=C(C)N=C(C)/C(=C(/O)OC)C1c1cccc(NC(=O)NCCNC2CCN(c3cccc(Cl)c3)CC2)c1` (stereo unspecified), the IC50 (usually the point on the concentration scale where inhibition reaches its midpoint) was 8 nM. On the same count and under the same terms, the same measure for `COC(=O)C1=C(C)N=C(C)/C(=C(/O)OC)C1c1cccc(NC(=O)NCCNC2CCN(c3ccccc3)CC2)c1` (stereo unspecified): 2 nM; for `COC(=O)C1=C(C)N=C(C)/C(=C(/O)OC)C1c1cccc(NC(=O)NCCNC2CCN(c3ccccc3O)CC2)c1` (stereo unspecified): 6 nM. Same read-out and setting: the same measure for `COC(=O)C1=C(C)N=C(C)/C(=C(/O)OC)C1c1cccc(NC(=O)NCCNC2CCN(c3ccccc3OC(F)(F)F)CC2)c1` (stereo unspecified): 25 nM; for `COC(=O)C1=C(C)N=C(C)/C(=C(/O)OC)C1c1cccc(NC(=O)NCCNC2CCN(c3ccccc3C(F)(F)F)CC2)c1` (stereo unspecified): 31 nM. `COC(=O)C1=C(C)N=C(C)/C(=C(/O)OC)C1c1cccc(N/C(=N/CCCN2CCN(c3cccc(OC)c3)CC2)NC#N)c1` (stereo unspecified) gave an IC50 of 39 nM. `COC(=O)C1=C(C)N=C(C)/C(=C(/O)OC)C1c1cccc(N/C(=N/CCNC2CCN(c3cccc(Cl)c3)CC2)NC#N)c1` (stereo unspecified) gave a 50% inhibitory concentration (IC50) of 8 nM. As for `COC(=O)C1=C(C)N=C(C)/C(=C(/O)OC)C1c1cccc(N/C(=N/CCNC2CCN(c3ccccc3C(F)(F)F)CC2)NC#N)c1` (stereo unspecified), the IC50 worked out at 14 nM.

`COC(=O)C1=C(C)N=C(C)/C(=C(/O)OC)C1c1cccc(N/C(=N/CCNC2CCN(c3ccccc3O)CC2)NC#N)c1` (stereo unspecified) showed an IC50 of 5 nM. As to `COC(=O)C1=C(C)N=C(C)/C(=C(/O)OC)C1c1cccc(NC(=O)NCCNC2CCN(c3ccccc3C)CC2)c1` (stereo unspecified), the half-inhibitory concentration (IC50) is 4 nM. Still for that read-out and setting: for `COC(=O)C1=C(C)N=C(C)/C(=C(/O)OC)C1c1cccc(N/C(=N/CCNC2CCN(c3ccccc3C#N)CC2)NC#N)c1` (stereo unspecified) the value was 3 nM; for `COC(=O)C1=C(C)N=C(C)/C(=C(/O)OC)C1c1cccc(NC(=O)NCCNC2CCN(c3ccccc3[N+](=O)[O-])CC2)c1` (stereo unspecified), 2 nM. The compound `COC(=O)C1=C(C)N=C(C)/C(=C(/O)OC)C1c1cccc(N/C(=N/CCNC2CCN(c3ccccc3[N+](=O)[O-])CC2)NC#N)c1` (stereo unspecified) returned an IC50 of 4 nM. On the same count and under the same terms, for `COC(=O)C1=C(C)N=C(C)/C(=C(/O)OC)C1c1cccc(N/C(=N/CCNC2CCN(c3ccccc3)CC2)NC#N)c1` (stereo unspecified) the value was 10 nM; for `COC(=O)C1=C(C)N=C(C)/C(=C(/O)OC)C1c1cccc(N/C(=N/CCNC2CCN(c3ccccc3OC(F)(F)F)CC2)NC#N)c1` (stereo unspecified), 28 nM; for `COC(=O)C1=C(C)N=C(C)/C(=C(/O)OC)C1c1cccc(NC(=O)NCCNC2CCN(c3ccccc3OC)CC2)c1` (stereo unspecified), 2 nM. The same measure, in the same setting: for `COC(=O)C1=C(C)N=C(C)/C(=C(/O)OC)C1c1cccc(N/C(=N/CCNC2CCN(c3ccccc3C)CC2)NC#N)c1` (stereo unspecified) the value was 4 nM; for `COC(=O)C1=C(C)N=C(C)/C(=C(/O)OC)C1c1cccc(NC(=O)NCCNC2CCN(c3ccccc3C#N)CC2)c1` (stereo unspecified), 3 nM; for `COC(=O)C1=C(C)N=C(C)/C(=C(/O)OC)C1c1cccc(N/C(=N/CCNC2CCN(c3ccccc3OC)CC2)NC#N)c1` (stereo unspecified), 4 nM. Same read-out and setting: for `COC(=O)C1=C(C)N=C(C)/C(=C(/O)OC)C1c1cccc(N/C(=N/CCNC2CCN(c3ccccc3SC)CC2)NC#N)c1` (stereo unspecified) the value was 3 nM; for `COC(=O)C1=C(C)N=C(C)/C(=C(/O)OC)C1c1cccc(NC(=O)NCCNC2CCN(c3ccccc3SC)CC2)c1` (stereo unspecified), 5 nM.

`COC(=O)C1=C(C)N=C(C)/C(=C(/O)OC)C1c1cccc(NC(=O)NCCCN2CCN(c3ccccc3OC)CC2)c1` (stereo unspecified) had a 50% inhibitory concentration (IC50) of 12 nM.

The next test deals with T1, Neuropeptide Y receptor type 1. Description: Antagonist activity towards Neuropeptide Y receptor type 1. Type of test: functional.
As to `COC(=O)C1=C(C)N=C(C)/C(=C(/O)OC)C1c1cccc(NC(=O)NCCNC2CCN(c3ccccc3OC)CC2)c1` (stereo unspecified), the Ki (commonly a measure of affinity in units of concentration, obtained from inhibition or displacement) came to 1.9 nM.

Take `COC(=O)C1=C(C)N=C(C)/C(=C(/O)OC)C1c1cccc(N/C(=N/CCNC2CCN(c3ccccc3OC)CC2)NC#N)c1` (stereo unspecified): the Ki was 3.6 nM.

Tested on in a further test: not listed separately
Description: Tested for inhibition of the forskolin-stimulated cAMP production. Format: functional. Background: Changes in cAMP serve as a functional read-out for many G protein-coupled receptors.
The compound `COC(=O)C1=C(C)N=C(C)/C(=C(/O)OC)C1c1cccc(NC(=O)NCCNC2CCN(c3ccccc3OC)CC2)c1` (stereo unspecified) registered a Kb of 20 nM. In turn, `COC(=O)C1=C(C)N=C(C)/C(=C(/O)OC)C1c1cccc(N/C(=N/CCNC2CCN(c3ccccc3OC)CC2)NC#N)c1` (stereo unspecified) gave a Kb of 9.4 nM.

These data come from ChEMBL document CHEMBL1138714, “Isosteric N-arylpiperazine replacements in a series of dihydropyridine NPY1 receptor antagonists” (Bioorg Med Chem Lett, 2004).
